# “Also recorded” adds a separate entry of the source.
# B1: activin A: 24 kD peptidic cell proliferation and differentiation factor belonging to the TGFβ family; activator of activin receptor-like kinase-4,7 (protein, UniProt P08476 311-426, looked up)
# Inhibin beta A chain: GLECDGKVNICCKKQFFVSFKDIGWNDWIIAPSGYHANYCEGECPSHIAGTSGSSLSFHSTVINHYRMRGHSPFANLKSCCVPTKLRPMSMLYYDDGQNIIKKDIQNMIVEECGCS
# modifications: Inhibin beta A chain
# Key:
# Format in all cases: cell-based
# [1] = test system: insulin-producing cells differentiated from human iPS cells; experiment: C-peptide secretion of differentiated insulin-producing cells in response to stimulation (Human C-peptide ELISA); conditions: 1 hr at 37° C. in buffer containing 2.5 mM glucose; (−)-Bay K8644 2 μM, tolbutamide 100 μM, carbachol 250 μM, IBMX 0.5 mM, KCl 30 mM; relative to 2.5 mM glucose
# Experimental: The medium was changed once on day 7 of induction. […] The medium was changed every 3-4 days. After the culture, the cells were washed with a buffer containing 2.5 mM glucose (NaCl (116 mM), KCl (4.7 mM), KH2PO4 (1.18 mM), MgSO4 (1.18 mM), NaHCO3 (25 mM), CaCl2 (2.52 mM), HEPES (24 mM), 0.1% BSA), a buffer containing 2.5 mM glucose was added and the mixture was cultured at 37° C. for 2 hr. The supernatant was completely removed, and a buffer containing 2.5 mM glucose, a buffer containing 22.5 mM glucose, a buffer containing 2.5 mM glucose and 2 μM (−)-Bay K8644, a buffer containing 2.5 mM glucose and 100 μM tolbutamide, a buffer containing 2.5 mM glucose and 250 μM carbachol, a buffer containing 2.5 mM glucose and 0.5 mM IBMX, and a buffer containing 2.5 mM glucose and 30 mM KCl were respectively added. After culture at 37° C. for 1 hr, the culture supernatant was recovered, and the C-peptide contained in the culture supernatant was measured using Human C-peptide ELISA kit (Mercodia AB).
# [2] = test system: human iPS cells (253G1 strain); experiment: quantitative RT-PCR of BRACHYURY and SOX17 during induction of human iPS cells into endodermal cells, steps (1)-(2); conditions: added with activin A (100 ng/ml) only the first day, CHIR99021 3 μM, Wnt3a 25 ng/ml, relative to GAPDH
# Source text: As a first stage for induction of differentiation of human iPS cells (iPS cells obtained by introducing Oct3/4 gene, Klf4 gene and Sox2 gene: see Nat Biotechnol 2008; 26: 101-106) into pancreas cells (particularly pancreatic hormone-producing cells), differentiation of human iPS cells was induced into endodermal cells by using a 96 well plate.
# As the human iPS cells, 253G1 strain (iPS cell line produced by expressing OCT4/SOX2/KLF4 with retrovirus; Nature Biotechnology 26, 101-106) was used. Maintenance culture of the iPS cells in an undifferentiated state was performed using mitomycin-treated mouse fibroblast (MEFs) seeded on a gelatin-coated plate as feeder cells, and a medium for primate ES cells (ReproCELL Incorporated) added with 4 ng/ml bFGF (PeproTech EC) and 0.5× Penicillin-streptomycin (SIGMA) as a medium at 37° C. under 5% CO2. The medium was changed every day, the cell mass was detached every 4-5 days using a cell detachment solution for primate ES cell (ReproCELL Incorporated), and passaged by seeding on new feeder cells.
# As a preculture for differentiation induction into endodermal cells, undifferentiated iPS cells were seeded in a 96 well plate. First, iPS cells maintained in a cell mass was treated with 0.25% trypsin-1 mM EDTA solution (GIBCO) and dissociated until they became single cells. Then, iPS cells dispersed in a medium were seeded in a 96 well plate at a density of 2×10^4 cells per well and cultured at 37° C. under 5% CO2 for 1 day. The 96 well plate used had been gelatin-coated, seeded with 5×10^3 MEFs and cultured at 37° C. under 5% CO2 for 5 hr. In addition, as a culture medium for seeding, a medium for primate ES cells added with 10 μM Y-27632 (Wako Pure Chemical Industries, Ltd.) was used. One day after seeding, the medium was changed to a medium for primate ES cells without Y-27632, and the cells were further cultured for 2 days until they became confluent.
# Differentiation of iPS cells into endodermal cells was induced according to the following method. First, the confluent cells were washed with RPMI medium (GIBCO), RPMI medium containing various differentiation-inducing factors and 2% fetal bovine serum (FBS) was added, and the mixture was cultured for 1 day. […]
# To examine variation in the expression of endoderm differentiation marker when cultured under each condition, differentiation-induced cells were recovered over time, and the total RNA fractions were purified using RNeasy96 (Qiagen). Using a PrimeScript RT reagent kit (Takara Bio Inc.), cDNA was synthesized, and quantitative RT-PCR was performed, whereby the gene expression level of BRACHYURY, which is a primitive streak marker, and SOX17, which is an endodermal marker, was measured.
# [3] = test system: human iPS cells (253G1 strain); experiment: immunofluorescent staining with anti-SOX17 antibody on day 3 of differentiation induction
# Experimental: To examine expression of SOX17 protein after culture for 3 days, immunofluorescent staining using an anti-SOX17 antibody was performed. After culture up to day 3 in the same manner as in FIG. 1, the cells were fixed with 2% para-formaldehyde (PFA) for 10 min and further for 20 min with 4% PFA at room temperature.
# Whether even use of a GSK3 inhibitor other than CHIR99021 in step (1) enables differentiation induction into endodermal cells was examined. The differentiation of human iPS cells into endodermal cells was induced according to the following method. […] Thereafter, the cells were washed with RPMI medium (GIBCO), and cultured for 1 day in RPMI medium containing various GSK3 inhibitors, activin A (100 ng/ml) and 2% fetal bovine serum (FBS). […] As a control, the cells were treated with a medium added only with activin A and free of GSK3 inhibitor. After culture for 1 day, the cells were washed with RPMI medium, and further cultured for 2 days in RPMI medium added with 2% FBS and 100 ng/ml activin A.
# To examine expression of SOX17 protein on day 3 of differentiation induction, immunofluorescent staining using an anti-SOX17 antibody was performed. 4% PFA was added to the cells on day 3 of culture under each condition, the mixture was incubated at room temperature for 30 min to fix the cells.
# [4] = test system: progenitor cells of pancreatic hormone-producing cells induced from human iPS cells; experiment: immunofluorescent staining with anti-insulin antibody after step (4); conditions: each added alone in step (4), day 10 to day 21; forskolin 10 μM, dibutyl cAMP 500 μM, IBMX 200 μM, ALK5 inhibitor II 5 μM, A-83-01 0.5 μM, SB431542 10 μM, TGFβRI kinase inhibitor VIII 2 μM, dexamethasone 10 μM, hydrocortisone 5 μM, betamethasone 2 μM, beclomethasone 1 μM
# [5] = test system: endodermal cells induced from human iPS cells; conditions: added simultaneously with dorsomorphin (1 μM) and retinoic acid (2 μM) day 3 to day 10; SB431542 5 μM, ALK5 inhibitor II 2 μM, A-83-01 0.2 μM, TGFβRI kinase inhibitor VIII 0.2 μM; vs dorsomorphin and retinoic acid alone
# Experimental: The dorsomorphin is an inhibitor of AMP-activated protein kinase (AMPK), and an inhibitor of ALK2, ALK3 and ALK6 from among activin receptor-like kinases (ALK). In addition, SB431542 is an inhibitor of ALK4, ALK5 and ALK7 from among ALKs.
# As a control, the medium was changed to one added with dorsomorphin and retinoic acid alone (Ctrl). […] After the culture, the expression level of NGN3, which is progenitor cells of pancreatic hormone-producing cells marker, was measured in the same manner as in Example 1.
Molecule,C-peptide secretion level [1],positive rate of insulin-expressing cells [4],also measured
"COC(=O)C1=C(C)NC(C)=C([N+](=O)[O-])C1c1ccccc1C(F)(F)F (single isomer, unassigned; (-)) [(−)-Bay K8644]",increased,–,–
"Cc1c[nH]c(-c2cnc(NCCNc3ccc(C#N)cn3)nc2-c2ccc(Cl)cc2Cl)n1 [CHIR99021, 6-[[2-[[4-(2,4-dichlorophenyl)-5-(4-methyl-1H-imidazol-2-yl)-2-pyrimidinyl]amino]ethyl]amino]nicotinonitrile]",–,–,"expression level of SOX17 (endodermal marker) ([2]; then activin A alone 2 days, days 2-3): increased markedly; also recorded: high value; expression level of BRACHYURY (primitive streak marker) ([2]; day 1 of differentiation induction): transiently increased; also recorded: highest value; ratio of cells expressing SOX17 protein ([3]; added with activin A (100 ng/ml) for 1 day, then activin A alone 2 days, CHIR99021 3 μM, Wnt3a 25 ng/ml, SB415286 3 μM, SB216763 20 μM): highest; also recorded: increased"
"Cc1cccc(-c2nn(C(=S)Nc3ccccc3)cc2-c2ccnc3ccccc23)n1 [Example A-83-01, 3-[6-methyl-2-pyridinyl]-N-phenyl-4-[4-quinolinyl]-1H-pyrazole-1-carbothioamide]",–,remarkably increased; also recorded: induced differentiation into insulin-positive cells with high efficiency,expression level of NGN3 [5]: increased remarkably
"CC(C)Cn1c(=O)n(C)c(=O)c2[nH]cnc21 [IBMX, 3-isobutyl-1-methylxanthine]",increased,remarkably increased; also recorded: induced differentiation into insulin-positive cells with high efficiency,–
[Cl-].[K+] [KCl],increased,–,–
"NC(=O)c1ccc(-c2nc(-c3ccc4c(c3)OCO4)c(-c3ccccn3)[nH]2)cc1 [SB431542, 4-[4-(1,3-benzodioxol-5-yl)-5-(2-pyridinyl)-1H-imidazol-2-yl]-benzamide]",–,remarkably increased; also recorded: induced differentiation into insulin-positive cells with high efficiency,expression level of NGN3 [5]: increased remarkably
"Cc1cccc(-c2[nH]c(C(C)(C)C)nc2-c2ccc3nccnc3c2)n1 [TGFβRI kinase inhibitor VIII, 6-[2-tert-butyl-5-[6-methyl-pyridin-2-yl]-1H-imidazol-4-yl]-quinoxaline]",–,remarkably increased; also recorded: induced differentiation into insulin-positive cells with high efficiency,expression level of NGN3 [5]: increased remarkably
C[C@H]1C[C@H]2[C@@H]3CCC4=CC(=O)C=C[C@]4(C)[C@@]3(Cl)[C@@H](O)C[C@]2(C)[C@@]1(O)C(=O)CO [beclomethasone],–,remarkably increased; also recorded: induced differentiation into insulin-positive cells with high efficiency,–
C[N+](C)(C)CCOC(N)=O [carbachol],increased,–,–
CCCC(=O)Nc1ncnc2c1ncn2[C@@H]1O[C@@H]2COP(=O)(O)O[C@H]2[C@H]1OC(=O)CCC [dibutyl cAMP],–,remarkably increased; also recorded: induced differentiation into insulin-positive cells with high efficiency,–
C[C@]12CCC(=O)C=C1CC[C@@H]1[C@@H]2[C@@H](O)C[C@@]2(C)[C@H]1CC[C@]2(O)C(=O)CO [hydrocortisone],–,remarkably increased; also recorded: induced differentiation into insulin-positive cells with high efficiency,–
CCCCNC(=O)NS(=O)(=O)c1ccc(C)cc1 [tolbutamide],increased,–,–
B1,–,–,ratio of cells expressing SOX17 protein ([3]; activin A (100 ng/ml) alone for 3 days (Comparative Example 1)): a part of the cells also expressed SOX17 protein

# — US8932853B2, “Method for manufacturing pancreatic-hormone-producing cells” (Takeda Pharmaceutical Company Limited, priority 2009, dated 2015)
